Results taken from ChEMBL document CHEMBL5727755, “Boronic acid derivatives” (2020).

Assay: Determination of LMP7 Activity: Measurement of LMP7 inhibition is performed in 384 well format based on fluorescence intensity assay.Purified human immuno proteasome (0.25 nM) and serial diluted compounds in DMSO (range of concentrations from 30 μM to 15 pM) or controls are incubated for 20 minutes or 120 minutes (long incubation) at 25° C. in assay buffer containing 50 mM Tris pH 7.4, 0.03% SDS, 1 mM EDTA and 1% DMSO. The reaction is initiated by the addition of the fluorogenic peptide substrate, Suc-LLVY-AMC (Bachem 1-1395), at a concentration of 40 μM. After 60 minutes of incubation at 37° C., fluorescence intensity is measured at λex=350 nm and λem=450 nm with a fluorescence reader (Perkin Elmer Envision reader or equivalent).

IC50 | SMILES
< 50 nM | CC#CC(=O)N(CCC)CC(=O)N[C@@H](Cc1ccc(C)cc1C)B(O)O
in the range around 275 nM | C=CS(=O)(=O)N(C)CC(=O)N[C@@H](Cc1ccc(C)c(C)c1)B(O)O
